Consider 15 molecules from patent publication US20220233512A1, “INHIBITING AN IMMUNE RESPONSE MEDIATED BY ONE OR MORE OF TLR2, RAGE, CCR5, CXCR4 AND CD4” (priority 2020, published 2022).

The target of assay [1] is T1, biotinylated FLNA pentapeptide of positions 2561-2565 (Homo sapiens, UniProt P21333).
T1 construct: the biotinylated FLNA pentapeptide of positions 2561-2565
As to the kind of experiment: FITC-NLX-based FLNA screening assay. The assay is classed as binding. The conditions noted are these: for Percent inhibition of FITC-NLX binding (preliminary study): 100 nM frozen-stored FITC-NLX, average of two runs. On the procedure: [50 ml of the peptide solution from B+50 ml binding medium, final concentration for DMSO: 0.5%].
The final assay volume is 100 ml.
The final screening concentration for each new compound is initially 10 mM.
Compounds are tested in triplicate or quadruplicate.

Another assay deals with T2, mu opiate receptor (MOR) (Rattus norvegicus, UniProt P33535).
T2 construct: from tissue; host or cells: striatum (membrane preparation)
As to the kind of experiment: MOR agonist activity using [35S]GTPgS binding assay in striatal membranes. In kind it is biochemical. Further details: MOR agonist activity (preliminary study): unit of the concentration uncertain. To be noted: for MOR agonist activity (preliminary study): average of two runs. A digest of the protocol: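 Rat striatal membranes incubated 5 min at 30 °C in pH 7.5 HEPES buffer with 100 mM NaCl, 1 mM MgCl2 and 0.5 nM [35S]GTPgS, then 5 min with compound. Gαo-bound [35S]GTPgS isolated by immunoprecipitation and counted by liquid scintillation.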

The target of assay [2] is FLNA interactions with CXCR4, CD4 and CCR5 (Homo sapiens, UniProt P21333). As to the kind of experiment: FLNA interactions with CXCR4, CD4 and CCR5 in lymphocytes (western blot). To be noted: 1 nM; lymphocytes of Ab42-treated young control subject and of AD patient.
Setting [3] is: 0.1 μM compound as agonist, Series C-1 table.
Where [4] appears, read: 1 μM compound as agonist, Series C-1 table.
The mark [5] stands for this setting: 0.1 μM compound as agonist, Series C-2 table.
Where [6] appears, read: 1 μM compound as agonist, Series C-2 table.

Structures are written as SMILES.

T2 sequence (P33535 whole entry): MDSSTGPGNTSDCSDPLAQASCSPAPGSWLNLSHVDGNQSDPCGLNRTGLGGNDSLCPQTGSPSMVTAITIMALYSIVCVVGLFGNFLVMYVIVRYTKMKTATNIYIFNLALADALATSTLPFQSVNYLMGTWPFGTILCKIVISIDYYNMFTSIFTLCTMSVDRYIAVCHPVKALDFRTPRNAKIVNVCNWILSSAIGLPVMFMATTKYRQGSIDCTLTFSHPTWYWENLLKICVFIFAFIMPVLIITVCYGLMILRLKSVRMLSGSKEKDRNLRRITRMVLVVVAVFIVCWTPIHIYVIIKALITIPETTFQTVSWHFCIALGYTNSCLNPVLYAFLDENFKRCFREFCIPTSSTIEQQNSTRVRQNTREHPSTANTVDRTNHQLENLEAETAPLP
Sequence of FLNA interactions with CXCR4, CD4 and CCR5 (P21333 2-2647 limits assumed): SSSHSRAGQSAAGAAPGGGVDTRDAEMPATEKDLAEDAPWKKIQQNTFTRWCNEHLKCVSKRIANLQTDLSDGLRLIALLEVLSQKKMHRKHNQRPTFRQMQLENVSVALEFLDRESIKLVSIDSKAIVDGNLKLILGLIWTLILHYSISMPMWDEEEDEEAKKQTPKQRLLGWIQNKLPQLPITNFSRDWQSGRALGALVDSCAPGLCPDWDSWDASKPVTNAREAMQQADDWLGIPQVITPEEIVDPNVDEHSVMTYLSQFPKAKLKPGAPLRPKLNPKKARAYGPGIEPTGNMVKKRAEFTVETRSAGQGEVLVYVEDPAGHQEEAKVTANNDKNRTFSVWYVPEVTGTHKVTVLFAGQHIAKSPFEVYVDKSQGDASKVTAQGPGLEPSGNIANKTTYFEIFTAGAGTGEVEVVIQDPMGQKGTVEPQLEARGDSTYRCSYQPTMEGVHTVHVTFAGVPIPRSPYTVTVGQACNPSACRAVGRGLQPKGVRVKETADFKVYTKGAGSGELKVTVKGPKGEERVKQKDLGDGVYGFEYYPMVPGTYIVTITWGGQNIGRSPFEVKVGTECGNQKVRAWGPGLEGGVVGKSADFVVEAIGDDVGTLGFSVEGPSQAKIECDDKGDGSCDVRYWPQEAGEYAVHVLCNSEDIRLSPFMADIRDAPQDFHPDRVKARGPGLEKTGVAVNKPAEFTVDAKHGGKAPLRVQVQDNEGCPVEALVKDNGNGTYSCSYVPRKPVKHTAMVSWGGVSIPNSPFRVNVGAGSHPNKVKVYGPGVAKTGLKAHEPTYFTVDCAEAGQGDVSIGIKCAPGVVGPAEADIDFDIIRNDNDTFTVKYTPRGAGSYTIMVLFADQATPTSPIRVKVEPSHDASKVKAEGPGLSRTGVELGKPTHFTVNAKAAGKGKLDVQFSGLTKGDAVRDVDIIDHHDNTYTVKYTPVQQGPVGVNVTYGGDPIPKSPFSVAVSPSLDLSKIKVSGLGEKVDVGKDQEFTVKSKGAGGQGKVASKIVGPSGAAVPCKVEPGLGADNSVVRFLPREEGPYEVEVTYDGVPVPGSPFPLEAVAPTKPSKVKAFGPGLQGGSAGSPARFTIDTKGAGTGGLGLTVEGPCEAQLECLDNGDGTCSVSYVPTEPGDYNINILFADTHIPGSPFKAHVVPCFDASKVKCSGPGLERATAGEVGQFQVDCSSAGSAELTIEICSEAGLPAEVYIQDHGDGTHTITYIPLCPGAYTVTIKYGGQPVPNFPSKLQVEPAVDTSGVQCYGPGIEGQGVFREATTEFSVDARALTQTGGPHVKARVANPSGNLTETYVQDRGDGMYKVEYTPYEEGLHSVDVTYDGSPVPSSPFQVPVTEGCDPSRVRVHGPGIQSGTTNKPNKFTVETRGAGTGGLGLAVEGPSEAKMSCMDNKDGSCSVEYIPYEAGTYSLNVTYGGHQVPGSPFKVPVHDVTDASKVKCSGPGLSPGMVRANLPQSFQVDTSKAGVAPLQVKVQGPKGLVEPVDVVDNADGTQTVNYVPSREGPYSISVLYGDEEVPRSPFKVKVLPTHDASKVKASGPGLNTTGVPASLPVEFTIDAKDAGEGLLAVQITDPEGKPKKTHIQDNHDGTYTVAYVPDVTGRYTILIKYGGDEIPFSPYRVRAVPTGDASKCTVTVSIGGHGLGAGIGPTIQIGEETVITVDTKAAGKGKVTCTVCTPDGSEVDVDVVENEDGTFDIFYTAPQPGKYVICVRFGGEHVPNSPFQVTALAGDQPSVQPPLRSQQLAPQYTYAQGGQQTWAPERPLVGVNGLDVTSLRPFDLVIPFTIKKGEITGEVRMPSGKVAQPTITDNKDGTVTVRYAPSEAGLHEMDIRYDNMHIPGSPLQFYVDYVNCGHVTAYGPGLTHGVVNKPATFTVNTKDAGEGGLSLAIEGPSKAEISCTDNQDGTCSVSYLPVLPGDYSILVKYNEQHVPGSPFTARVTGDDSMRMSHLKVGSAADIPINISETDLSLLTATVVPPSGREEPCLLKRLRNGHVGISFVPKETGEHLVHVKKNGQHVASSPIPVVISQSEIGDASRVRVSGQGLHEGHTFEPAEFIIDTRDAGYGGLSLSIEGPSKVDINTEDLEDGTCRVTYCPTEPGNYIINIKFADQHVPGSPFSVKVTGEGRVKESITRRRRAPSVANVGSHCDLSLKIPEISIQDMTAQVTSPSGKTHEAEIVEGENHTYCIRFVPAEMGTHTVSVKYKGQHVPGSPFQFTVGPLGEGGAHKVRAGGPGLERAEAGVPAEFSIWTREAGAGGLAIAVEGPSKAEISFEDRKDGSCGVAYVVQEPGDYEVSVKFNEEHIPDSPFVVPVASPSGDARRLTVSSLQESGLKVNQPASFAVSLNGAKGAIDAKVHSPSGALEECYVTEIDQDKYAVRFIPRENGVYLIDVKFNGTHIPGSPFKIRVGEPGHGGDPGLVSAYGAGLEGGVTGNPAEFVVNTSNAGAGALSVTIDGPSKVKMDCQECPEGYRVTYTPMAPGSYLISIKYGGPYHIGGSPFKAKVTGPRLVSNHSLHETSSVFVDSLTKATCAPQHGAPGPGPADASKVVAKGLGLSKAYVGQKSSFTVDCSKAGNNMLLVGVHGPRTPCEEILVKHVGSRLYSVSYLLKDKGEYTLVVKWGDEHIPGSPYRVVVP

In the case of `C=CCN1CC[C@]23c4c5ccc(O)c4O[C@H]2C(=O)CC[C@]3(O)[C@H]1C5` [(+) NLX], the “Percent inhibition of FITC-NLX binding (preliminary study)” value is given as 22.7% in assay [1] (0.1 nM compound); 22.8% in assay [1] (1 nM compound); 23.1% in assay [1] (10 nM compound); 22.8% in assay [1] (100 nM compound); 39.8% in assay [1] (1 mM compound).
Consider `Nc1ccc(C(=O)N2CCC3(CC2)OCCN3S(=O)(=O)c2ccc(N)cc2)cc1` [Compound C0023], for which the inhibition at 0.01 µM in assay [1] (0.01 μM compound, C-Series-1 table, 10 nM FITC-NLX, read-out: Percent Binding Inhibition) came to 35.9%. For the same molecule, the inhibition at 0.1 µM in assay [1] (0.1 μM compound, C-Series-1 table, 10 nM FITC-NLX, read-out: Percent Binding Inhibition) amounted to 41.7%. In assay [1] (1 μM compound, C-Series-1 table, 10 nM FITC-NLX, read-out: Percent Binding Inhibition), the inhibition at 1 µM is 47.2%. Moreover, the “MOR agonist activity ([35S]GTPgS binding to Gao)” value at mu opiate receptor (MOR) (setting [3]) worked out at 153.2%; at mu opiate receptor (MOR) (1 μM + BFNA, Series C-1 table), 23.2%; at mu opiate receptor (MOR) (setting [4]) it was 233.7%.
For `COc1ccc(S(=O)(=O)N2CCC3(NCCO3)C3CCCCC32)cc1` (stereo not drawn) [Compound C0144M-2], the “MOR agonist activity ([35S]GTPgS binding to Gao)” value on mu opiate receptor (MOR) (setting [5]) is reported as 186.3%; at mu opiate receptor (MOR) (1 μM + BFNA, Series C-2 table) it was 125.9%; at mu opiate receptor (MOR) (setting [6]), 295.9%.
`COc1ccc(S(=O)(=O)N2CCC3(OCCN3S(=O)(=O)c3ccc(OC)cc3)C3CCCCC32)cc1` (stereo not drawn) [Compound C0144M]: the “MOR agonist activity ([35S]GTPgS binding to Gao)” value at mu opiate receptor (MOR) (setting [3]) is reported as 186.3%; on mu opiate receptor (MOR) (1 μM + BFNA, Series C-1 table) it was 125.9%; at mu opiate receptor (MOR) (setting [4]), 295.9%.
Turning to `COc1ccc(S(=O)(=O)N2CCOC23CCCNC3)cc1` (stereo not drawn) [Compound C0145M-3], the “MOR agonist activity ([35S]GTPgS binding to Gao)” value was determined as 193.0% on mu opiate receptor (MOR) (setting [5]); 87.0% at mu opiate receptor (MOR) (1 μM + BFNA, Series C-2 table); 289.2% on mu opiate receptor (MOR) (setting [6]).
`COc1ccc(S(=O)(=O)N2CCCC3(C2)OCCN3S(=O)(=O)c2ccc(OC)cc2)cc1` (stereo not drawn) [Compound C0145M]: the “MOR agonist activity ([35S]GTPgS binding to Gao)” value on mu opiate receptor (MOR) (setting [3]) is 193.0%; on mu opiate receptor (MOR) (1 μM + BFNA, Series C-1 table), 87.0%; at mu opiate receptor (MOR) (setting [4]) it was 289.2%.
Take `O=C1CNC2(CCN(S(=O)(=O)c3ccc(O)cc3)CC2)N1Cc1ccccc1` [Compound C0148M]: the “MOR agonist activity ([35S]GTPgS binding to Gao)” value at mu opiate receptor (MOR) (setting [3]) is 181.3%; at mu opiate receptor (MOR) (1 μM + BFNA, Series C-1 table), 87.6%; on mu opiate receptor (MOR) (setting [4]), 360.6%. Moreover, the “% DAMGO + BFNA” value on mu opiate receptor (MOR) (relative to DAMGO + BFNA, Series C-1 table) was found to be 95.9%. Also, the “% DAMGO (0.1 μM)” value on mu opiate receptor (MOR) (relative to DAMGO at 0.1 μM, Series C-1 table) amounted to 105.4%. The “% DAMGO (1 μM)” value at mu opiate receptor (MOR) (relative to DAMGO at 1 μM, Series C-1 table) came out at 110.6%.
For `O=S(=O)(c1ccccc1Oc1ccccc1)N1CCC2(CC1)NCCO2` [Compound C0149M-2], the “MOR agonist activity ([35S]GTPgS binding to Gao)” value worked out at 209.8% at mu opiate receptor (MOR) (setting [5]); 93.4% at mu opiate receptor (MOR) (1 μM + BFNA, Series C-2 table); 406.7% at mu opiate receptor (MOR) (setting [6]).
For `O=S(=O)(c1ccc(Oc2ccccc2)cc1)N1CCC2(CC1)OCCN2S(=O)(=O)c1ccc(Oc2ccccc2)cc1` [Compound C0149M], the “MOR agonist activity ([35S]GTPgS binding to Gao)” value is reported as 209.8% on mu opiate receptor (MOR) (setting [3]); 93.4% at mu opiate receptor (MOR) (1 μM + BFNA, Series C-1 table); 406.7% on mu opiate receptor (MOR) (setting [4]).
The corresponding values for `O=S(=O)(c1csc2ccccc12)N1CCC2(CC1)OCCN2S(=O)(=O)c1csc2ccccc12` [Compound C0150M] are 167.1%, 93.4% and 423.1%.
For the molecule `COc1ccc(NC(=O)N2CCC3(CC2)NCCO3)cc1` [Compound C0151M-2], the “MOR agonist activity ([35S]GTPgS binding to Gao)” value is reported as 346.8% at mu opiate receptor (MOR) (setting [5]); 212.8% at mu opiate receptor (MOR) (1 μM + BFNA, Series C-2 table); 397.6% on mu opiate receptor (MOR) (setting [6]).
On to `COc1ccc(NC(=O)N2CCC3(CC2)OCCN3C(=O)Nc2ccc(OC)cc2)cc1` [Compound C0151M], for which the “MOR agonist activity ([35S]GTPgS binding to Gao)” value was determined as 346.8% on mu opiate receptor (MOR) (setting [3]); 212.8% on mu opiate receptor (MOR) (1 μM + BFNA, Series C-1 table); 397.6% on mu opiate receptor (MOR) (setting [4]).
For `C[C@@H](NC(=O)[C@@H](N)Cc1ccc(O)cc1)C(=O)NCC(=O)N(C)[C@@H](Cc1ccccc1)C(=O)NCCO` [DAMGO, [D-Ala2, N-MePhe4, Gly-ol]-enkephalin, reference compound], the “MOR agonist activity ([35S]GTPgS binding to Gao)” value on mu opiate receptor (MOR) (setting [3]) is given as 168.5%; at mu opiate receptor (MOR) (setting [5]) it was 168.5%; on mu opiate receptor (MOR) (1 μM + BFNA, Series C-1 table), 53.2%; at mu opiate receptor (MOR) (1 μM + BFNA, Series C-2 table), 53.2%; at mu opiate receptor (MOR) (setting [4]) it was 266.1%; on mu opiate receptor (MOR) (setting [6]), 266.1%. Further, the results for the “MOR agonist activity (preliminary study)” value at mu opiate receptor (MOR) (1 mM + bNFA), at mu opiate receptor (MOR) (0.1 (unit uncertain) compound as agonist) and at mu opiate receptor (MOR) (1 (unit uncertain) compound as agonist) were 56.8%, 144.7% and 233.4%, respectively.
For the molecule `C=CCN1CC[C@]23c4c5ccc(O)c4O[C@H]2C(=O)CC[C@@]3(O)[C@H]1C5` [Naloxone, naloxone, reference compound], the “FLNA linkages with CXCR4, CD4 and CCR5 (in words)” value in assay [2] was “reduced these linkages”.
On to `COc1ccc(S(=O)(=O)N2CCSC23CCNCC3)cc1` [S-C0027], for which the “MOR agonist activity ([35S]GTPgS binding to Gao)” value on mu opiate receptor (MOR) (setting [5]) turned out to be 156.2%; on mu opiate receptor (MOR) (1 μM + BFNA, Series C-2 table), 56.2%; at mu opiate receptor (MOR) (setting [6]), 286.8%.
